Measurements from paper PMC10281575, “PfCRT mutations conferring piperaquine resistance in falciparum malaria shape the kinetics of quinoline drug binding and transport” (PLOS Pathogens, 2023).
Where “and” joins values, the source holds several entries; their conditions need not be identical. Equal values may be shown once.

Experiments:
PfCRT^Dd2_F145I = target: T1, PfCRT^Dd2_F145I (Plasmodium falciparum, UniProt Q8IBZ9, A220S/F145I/I356T/K76T/M74I/N326S/N75E/Q271E/R371I); assay: Competition plot (Vtotal versus proportion of PPQ in CQ/PPQ mixtures), PfCRT^Dd2_F145I; assay type: cell-based; conditions: for competition plot result (binding sites): CQ/PPQ mixtures, Vtotal dependent on P
T1 construct: expressed in transfected cells; host or cells: Xenopus laevis oocytes injected with in vitro transcribed RNA (pSP64T)
T1 sequence (Q8IBZ9 1-424 M74I/N75E/K76T/F145I/A220S/Q271E/N326S/I356T/R371I): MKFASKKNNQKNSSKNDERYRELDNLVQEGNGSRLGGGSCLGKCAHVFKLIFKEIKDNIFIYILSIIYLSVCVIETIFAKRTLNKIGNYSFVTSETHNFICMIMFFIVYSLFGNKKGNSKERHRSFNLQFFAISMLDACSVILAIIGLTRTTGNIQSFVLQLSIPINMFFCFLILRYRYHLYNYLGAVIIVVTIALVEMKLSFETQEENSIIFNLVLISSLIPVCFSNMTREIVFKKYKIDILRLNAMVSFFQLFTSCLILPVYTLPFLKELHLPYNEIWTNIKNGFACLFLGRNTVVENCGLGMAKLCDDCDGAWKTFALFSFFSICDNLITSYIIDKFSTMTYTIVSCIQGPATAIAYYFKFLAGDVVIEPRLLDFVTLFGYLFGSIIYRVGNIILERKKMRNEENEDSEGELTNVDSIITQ
Procedure: To test this hypothesis, we performed competition plot experiments, in which the enzyme or carrier is exposed to substrate mixtures that give the same transport rate for different substrates. The experiment is performed with substrate A labeled and then repeated with substrate B labeled. […] Similar results were found for PfCRT^Dd2_F145I.
Fig 3 Competition plot of the interaction of PfCRT^Dd2 (A) and PfCRT^Dd2_F145I (B) with CQ and PPQ. The competition plot tests whether two substrates bind to the same site or distinct sites on an enzyme or transporter. A competitive reaction would yield data points that lie on a horizontal line, whereas allosteric interactions would reveal a curved relationship. PfCRT-mediated drug uptake was measured from mixtures of radiolabeled CQ and PPQ that combined yielded an uptake close to saturation (Vtotal). Vtotal was subsequently analyzed as a function of the proportion of PPQ in the mixture (P). For more details see Materials and Methods. The mean ± SEM of at least 3 independent biological replicates are shown.
The competition plot was performed as described elsewhere. Briefly, a concentration of CQ and a concentration of PPQ were selected (using the parameters from Table 1), such that (i) the rate of PPQ transport was equivalent to the rate of CQ transport, and (ii) the transport rate for CQ (the less efficiently transported substrate) approached its Vmax. The resulting concentrations for PfCRT^Dd2 were [CQ]^max = 400 μM and [PPQ]^max = 23.1 μM. At these concentrations of CQ and PPQ, the expected uptake is 19.8 pmol h^-1 oocyte^-1. The resulting concentrations for PfCRT^Dd2_F145I were [CQ]^max = 400 μM and [PPQ]^max = 18.2 μM. At these concentrations of CQ and PPQ, the expected uptake is 18.2 pmol h^-1 oocyte^-1. A series of reaction buffers containing CQ and PPQ at concentrations [CQ] = (1—P) x [CQ]^max and [PPQ] = P x [PPQ]^max were assembled, where P is the proportion of PPQ in the mixture. […] These corresponded to values of P equal to 0, 0.25, 0.5, 0.75, 0.9 and 1. A plot of Vtotal as a function of P yielded the competition plots. If both substrates bind to the same site, then a constant Vtotal is expected across all P values (e.g. data lies on a horizontal line). If the substrates bind to different sites, and they inhibit each other’s transport, it is expected that the curve is concave with either a minimum or a maximum.

PfCRT^HB3 = target: T2, PfCRT^HB3 (Plasmodium falciparum, UniProt Q8IBZ9); assay: Radiolabeled drug uptake in X. laevis oocytes expressing wild type PfCRT^HB3; assay type: cell-based; conditions: pH 6.0
T2 construct: expressed in transfected cells; host or cells: Xenopus laevis oocytes injected with in vitro transcribed RNA (pSP64T)
T2 sequence (Q8IBZ9 whole entry): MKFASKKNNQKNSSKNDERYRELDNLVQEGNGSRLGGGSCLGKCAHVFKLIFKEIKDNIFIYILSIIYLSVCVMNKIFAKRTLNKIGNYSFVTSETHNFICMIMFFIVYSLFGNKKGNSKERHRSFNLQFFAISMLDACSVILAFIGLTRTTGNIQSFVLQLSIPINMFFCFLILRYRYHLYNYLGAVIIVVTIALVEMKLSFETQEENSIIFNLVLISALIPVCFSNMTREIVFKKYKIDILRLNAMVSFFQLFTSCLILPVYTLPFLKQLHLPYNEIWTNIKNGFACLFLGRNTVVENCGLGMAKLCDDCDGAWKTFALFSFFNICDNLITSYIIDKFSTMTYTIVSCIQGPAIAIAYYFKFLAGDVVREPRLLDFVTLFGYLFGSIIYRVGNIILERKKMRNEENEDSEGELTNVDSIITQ
Procedure: Adult female X. laevis frogs (purchased from NASCO) were anesthetized by submersion in a solution of 0.3% (w/v) 3-amino benzoate methanesulfonate for 15 min. Sections of the ovary were surgically removed and placed in Ca^2+-free ND96 buffer supplemented with 0.1% collagenase D (w/v; Roche), 0.5% BSA (w/v) and 9 mM Na2HPO4 at 18°C for 14–16 h while gently shaking. The oocytes were then washed several times with ND96 buffer (5 mM HEPES, pH 7.5, 96 mM NaCl, 2 mM KCl, 1.8 mM CaCl2, 1 mM MgCl2), supplemented with […] gentamycin. Healthy-looking stage V-VI oocytes were manually selected and randomly grouped for injection. A codon-optimized coding sequence of PfCRT was subcloned into the pSP64T expression vector and subsequently linearized using the restriction endonuclease BamHI or SalI (New England Biolabs GmbH). RNA for injection was transcribed in vitro using the mMESSAGE mMACHINE SP6 Transcription kit (Ambion), diluted with nuclease-free water to a final concentration of 0.6 μg/μL and stored at -80°C. RNA was injected using precision-bore glass capillary tubes (3.5-inch glass capillaries; Drummond Scientific Co.), which were pulled on a vertical puller (P-87 Flaming/Brown micropipette puller, Sutter Instrument Co.) and graduated. The micropipettes were connected to a microinjector (Nanoject II Auto-Nanoliter Injector, Drummond Scientific Co.). Injection was conducted under stereomicroscopic control. 50 nL of nuclease-free water alone (control oocytes) or 50 nL of nuclease-free water containing 30 ng of RNA was injected per oocyte. Injected oocytes were kept for 72 h at 18°C in ND96 buffer with two daily buffer changes before being used for further experiments.
Drug transport assays were performed as previously described. Briefly, measurements of radiolabeled drug uptake were made over 1 h, unless otherwise specified. […] Where specified, one or more unlabeled drugs were also present at the indicated concentrations. […] The uptake assays were terminated by removing the oocytes from the reaction medium and washing them three times with 2 mL of ice-cold ND96 buffer. Each oocyte was transferred to a separate scintillation vial and lysed by the addition of 200 μL of a 5% SDS solution. The radioactivity in the sample was measured using a liquid scintillation analyser Tri-Carb 4910 TR (PerkinElmer). Water-injected oocytes were analyzed in parallel as a negative control. The buffer from each condition was measured in duplicate in parallel to each experiment to transform counts per minute into pmol of drug. Drug uptake attributable to PfCRT was determined by subtracting the background uptake from water-injected oocytes from that of PfCRT-expressing oocytes. In all cases, at least three independent experiments were performed on oocytes from different frogs, and for each condition in an experiment, measurements were made from 10 oocytes per treatment.

[1] = CQ/PPQ mixture, P = 0.25, single replicates
[2] = CQ/PPQ mixture, P = 0.5, single replicates
[3] = CQ/PPQ mixture, P = 0.75, single replicates
[4] = CQ/PPQ mixture, P = 0.9, single replicates
[5] = 50 μM CQ, total uptake, one value per biological replicate
[6] = 50 μM CQ, water-injected uptake subtracted, per replicate
[7] = 50 μM PPQ, total uptake, one value per biological replicate
[8] = 50 μM PPQ, water-injected uptake subtracted, per replicate

Structure (SMILES): CCN(CC)CCCC(C)Nc1ccnc2cc(Cl)ccc12 (stereo not drawn) [CQ, chloroquine]
- PfCRTDd2_F145I-mediated CQ transport P = 0 (PfCRT^Dd2_F145I; CQ/PPQ mixture, P = 0, single replicates): 14.23 pmol oocyte-1 h-1 and 18.19 pmol oocyte-1 h-1 and 22.31 pmol oocyte-1 h-1
- PfCRTDd2_F145I-mediated CQ transport P = 0.25 (PfCRT^Dd2_F145I; [1]): 16.38 pmol oocyte-1 h-1 and 14.89 pmol oocyte-1 h-1 and 14.95 pmol oocyte-1 h-1
- PfCRTDd2_F145I-mediated CQ transport P = 0.5 (PfCRT^Dd2_F145I; [2]): 11.20 pmol oocyte-1 h-1 and 13.42 pmol oocyte-1 h-1 and 11.66 pmol oocyte-1 h-1
- PfCRTDd2_F145I-mediated CQ transport P = 0.75 (PfCRT^Dd2_F145I; [3]): 8.54 pmol oocyte-1 h-1 and 5.74 pmol oocyte-1 h-1 and 7.98 pmol oocyte-1 h-1
- PfCRTDd2_F145I-mediated CQ transport P = 0.9 (PfCRT^Dd2_F145I; [4]): 3.23 pmol oocyte-1 h-1 and 2.52 pmol oocyte-1 h-1
- competition plot result (binding sites) (PfCRT^Dd2_F145I): occupy different domains
- PfCRTHB3 uptake of CQ at 10 min (PfCRT^HB3; [5]): 3.76 pmol oocyte-1 and 2.69 pmol oocyte-1 and 4.10 pmol oocyte-1 and 2.94 pmol oocyte-1
- PfCRTHB3 uptake of CQ at 30 min (PfCRT^HB3; [5]): 5.04 pmol oocyte-1 and 6.21 pmol oocyte-1 and 4.82 pmol oocyte-1
- PfCRTHB3 uptake of CQ at 60 min (PfCRT^HB3; [5]): 10.53 pmol oocyte-1 and 9.06 pmol oocyte-1 and 13.05 pmol oocyte-1 and 9.38 pmol oocyte-1
- PfCRTHB3 uptake of CQ at 90 min (PfCRT^HB3; [5]): 10.44 pmol oocyte-1 and 13.59 pmol oocyte-1 and 10.43 pmol oocyte-1
- PfCRTHB3 uptake of CQ at 120 min (PfCRT^HB3; [5]): 15.66 pmol oocyte-1 and 14.17 pmol oocyte-1 and 15.57 pmol oocyte-1
- PfCRTHB3 uptake of CQ at 180 min (PfCRT^HB3; [5]): 15.78 pmol oocyte-1 and 15.62 pmol oocyte-1 and 19.97 pmol oocyte-1
- PfCRTDd2_HB3-mediated CQ uptake at 60 min (PfCRT^HB3; [6]): 0.25 pmol oocyte-1 and -1.21 pmol oocyte-1 and 2.78 pmol oocyte-1 and -0.90 pmol oocyte-1
- PfCRTHB3-mediated CQ uptake at 10 min (PfCRT^HB3; [6]): 0.87 pmol oocyte-1 and -0.20 pmol oocyte-1 and 1.21 pmol oocyte-1 and 0.05 pmol oocyte-1
- PfCRTHB3-mediated CQ uptake at 30 min (PfCRT^HB3; [6]): 1.16 pmol oocyte-1 and -0.23 pmol oocyte-1 and 0.94 pmol oocyte-1 and -0.44 pmol oocyte-1
- PfCRTHB3-mediated CQ uptake at 90 min (PfCRT^HB3; [6]): -0.39 pmol oocyte-1 and 2.75 pmol oocyte-1 and -0.41 pmol oocyte-1
- PfCRTHB3-mediated CQ uptake at 120 min (PfCRT^HB3; [6]): 0.98 pmol oocyte-1 and -0.51 pmol oocyte-1 and 0.90 pmol oocyte-1
- PfCRTHB3-mediated CQ uptake at 180 min (PfCRT^HB3; [6]): -0.99 pmol oocyte-1 and -1.15 pmol oocyte-1 and 3.20 pmol oocyte-1

Structure (SMILES): Clc1ccc2c(N3CCN(CCCN4CCN(c5ccnc6cc(Cl)ccc56)CC4)CC3)ccnc2c1 [PPQ, piperaquine]
- PfCRTDd2_F145I-mediated PPQ transport P = 0.25 (PfCRT^Dd2_F145I; [1]): 3.27 pmol oocyte-1 h-1 and 3.77 pmol oocyte-1 h-1 and 3.82 pmol oocyte-1 h-1
- PfCRTDd2_F145I-mediated PPQ transport P = 0.5 (PfCRT^Dd2_F145I; [2]): 7.53 pmol oocyte-1 h-1 and 7.99 pmol oocyte-1 h-1 and 8.13 pmol oocyte-1 h-1
- PfCRTDd2_F145I-mediated PPQ transport P = 0.75 (PfCRT^Dd2_F145I; [3]): 12.62 pmol oocyte-1 h-1 and 13.41 pmol oocyte-1 h-1 and 10.66 pmol oocyte-1 h-1
- PfCRTDd2_F145I-mediated PPQ transport P = 0.9 (PfCRT^Dd2_F145I; [4]): 15.10 pmol oocyte-1 h-1 and 16.36 pmol oocyte-1 h-1 and 16.00 pmol oocyte-1 h-1
- PfCRTDd2_F145I-mediated PPQ transport P = 1 (PfCRT^Dd2_F145I; CQ/PPQ mixture, P = 1, single replicates): 16.57 pmol oocyte-1 h-1 and 18.61 pmol oocyte-1 h-1 and 20.05 pmol oocyte-1 h-1
- competition plot result (binding sites) (PfCRT^Dd2_F145I): occupy different domains
- PfCRTHB3I PPQ uptake at 30 min (PfCRT^HB3; [7]): 72.50 pmol oocyte-1 and 74.50 pmol oocyte-1 and 59.24 pmol oocyte-1
- PfCRTHB3 PPQ uptake at 10 min (PfCRT^HB3; [7]): 38.64 pmol oocyte-1 and 39.15 pmol oocyte-1 and 28.68 pmol oocyte-1
- PfCRTHB3 PPQ uptake at 60 min (PfCRT^HB3; [7]): 123.26 pmol oocyte-1 and 113.71 pmol oocyte-1 and 93.83 pmol oocyte-1
- PfCRTHB3 PPQ uptake at 90 min (PfCRT^HB3; [7]): 136.75 pmol oocyte-1 and 135.43 pmol oocyte-1 and 118.84 pmol oocyte-1
- PfCRTHB3 PPQ uptake at 120 min (PfCRT^HB3; [7]): 198.78 pmol oocyte-1 and 176.89 pmol oocyte-1 and 174.87 pmol oocyte-1
- PfCRTHB3 PPQ uptake at 180 min (PfCRT^HB3; [7]): 161.64 pmol oocyte-1 and 186.48 pmol oocyte-1 and 220.34 pmol oocyte-1
- PfCRTHB3-mediated PPQ uptake at 10 min (PfCRT^HB3; [8]): 8.47 pmol oocyte-1 and 8.98 pmol oocyte-1 and -1.48 pmol oocyte-1
- PfCRTHB3-mediated PPQ uptake at 30 min (PfCRT^HB3; [8]): 7.50 pmol oocyte-1 and 9.50 pmol oocyte-1 and -5.76 pmol oocyte-1
- PfCRTHB3-mediated PPQ uptake at 60 min (PfCRT^HB3; [8]): 17.15 pmol oocyte-1 and 7.60 pmol oocyte-1 and -12.28 pmol oocyte-1
- PfCRTHB3-mediated PPQ uptake at 90 min (PfCRT^HB3; [8]): 16.35 pmol oocyte-1 and 15.03 pmol oocyte-1 and -1.56 pmol oocyte-1
- PfCRTHB3-mediated PPQ uptake at 120 min (PfCRT^HB3; [8]): -20.70 pmol oocyte-1 and -22.71 pmol oocyte-1 and 1.19 pmol oocyte-1
- PfCRTHB3-mediated PPQ uptake at 180 min (PfCRT^HB3; [8]): 33.25 pmol oocyte-1 and -25.45 pmol oocyte-1 and -0.62 pmol oocyte-1
